Experimental data published in patent publication US8883789B2, “Piperazine derivatives and their use as positive allosteric modulators of mGluR5 receptors” (Boehringer Ingelheim International GmbH, priority 2011, dated 2014).

biological target: T1, human recombinant mGluR5 (Homo sapiens, UniProt P41594); test: positive modulation of mGluR5, calcium based FLIPR assay; conditions: HEK 293 cell line expressing human recombinant mGluR5; Ca2+ peak height after glutamate at approximately 5% basal stimulation; nonlinear regression
T1 construct: expressed in transfected cells; hygromycin and geneticin selection
T1 sequence (P41594 21-1212): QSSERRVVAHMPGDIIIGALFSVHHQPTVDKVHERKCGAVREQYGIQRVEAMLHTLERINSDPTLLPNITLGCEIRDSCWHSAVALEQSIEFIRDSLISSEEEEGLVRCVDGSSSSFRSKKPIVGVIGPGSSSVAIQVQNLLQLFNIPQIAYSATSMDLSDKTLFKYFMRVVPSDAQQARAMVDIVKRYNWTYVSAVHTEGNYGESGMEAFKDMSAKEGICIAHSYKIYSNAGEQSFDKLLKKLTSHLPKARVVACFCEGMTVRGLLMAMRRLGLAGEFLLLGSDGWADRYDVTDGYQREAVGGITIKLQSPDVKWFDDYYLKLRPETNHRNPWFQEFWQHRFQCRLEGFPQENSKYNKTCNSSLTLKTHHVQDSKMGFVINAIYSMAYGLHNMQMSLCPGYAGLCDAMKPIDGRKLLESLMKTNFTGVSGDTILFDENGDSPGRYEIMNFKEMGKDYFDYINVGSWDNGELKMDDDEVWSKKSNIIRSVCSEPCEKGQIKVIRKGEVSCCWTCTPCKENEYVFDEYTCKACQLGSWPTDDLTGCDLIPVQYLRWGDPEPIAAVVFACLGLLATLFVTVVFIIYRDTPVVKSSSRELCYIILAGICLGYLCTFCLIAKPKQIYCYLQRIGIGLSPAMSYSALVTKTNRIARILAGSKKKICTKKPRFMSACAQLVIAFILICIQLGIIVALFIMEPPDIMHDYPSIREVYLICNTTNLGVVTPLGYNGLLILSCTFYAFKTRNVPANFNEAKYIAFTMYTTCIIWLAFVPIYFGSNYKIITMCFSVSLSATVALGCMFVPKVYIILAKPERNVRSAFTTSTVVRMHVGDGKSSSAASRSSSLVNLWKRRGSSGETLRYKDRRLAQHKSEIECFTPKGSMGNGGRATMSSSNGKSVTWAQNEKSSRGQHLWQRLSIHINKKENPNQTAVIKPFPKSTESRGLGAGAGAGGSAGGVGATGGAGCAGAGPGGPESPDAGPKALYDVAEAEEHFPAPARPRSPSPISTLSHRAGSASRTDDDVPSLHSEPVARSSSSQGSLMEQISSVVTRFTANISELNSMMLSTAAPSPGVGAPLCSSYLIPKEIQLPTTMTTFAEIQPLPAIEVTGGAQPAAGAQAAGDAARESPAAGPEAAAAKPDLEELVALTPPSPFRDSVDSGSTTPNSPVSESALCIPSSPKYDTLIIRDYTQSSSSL
Method: The positive modulation of mGluR5 is measured in a HEK 293 cell line expressing human recombinant mGluR5 and is detected with calcium based FLIPR assay. The cells are cultured with DMEM supplemented with 10% FCS, 2 μg/mL tetracycline, 100 μg/mL hygromycin and 500 μg/mL geneticin. The cell culture media is exchanged for tetracycline-free cell culture media 3-7 days before the assay. One day before the assay the cell culture medium is exchanged to DMEM without glutamine and phenol red and supplemented with 10% FCS, 100 μg/mL hygromycin and 500 μg/mL geneticin. On the assay day, the medium of the subconfluent cultures is removed and the cells are detached by addition of 2.5 ml EDTA (0.02%) per 175 cm2 culture flask for 1 minute. The cells are resuspend in Ringer solution (140 mM NaCl, 5 mM KCl, 2.5 mM CaCl2, 1.5 mM MgCl2, 5 mM Glucose, 10 mM Hepes; adjusted to pH 7.4 with NaOH), pooled and Ringer solution added to adjust the volume to 50 mL. The cell suspension is centrifuged for […] at 1500 U/min (425 g). The supernatant is removed and the cells washed a second time with 50 ml fresh Ringer solution and centrifuged again as before. The supernatant is again removed and the pellet resuspended in Ringer solution to 1,000,000 cells/ml (1×10^6 cells/mL). The cells are plated onto BD BioCoat Poly-D-Lysine 384 well plates (20.000 cells/well; 20 μl/well). The lid covered plates are then incubated until use at 37° C./10% CO2. For dye loading, 20 μl of Calcium-4 assay kit solution (prepared according to the manufacturer's description in Ringer solution) are added to the cells and the plates are incubated for 80 min 37° C. and then 10 min at room temperature.
Controls, Compound Dilution and Assay Execution:
Each assay plate contained wells with “high” and “low” controls:
Low controls 1% DMSO/ringer solution+basal glutamate activation (defined as 100% CTL).
High controls 10 μM CDPPB+basal glutamate activation (defined as 200% CTL).
Test compounds are dissolved and diluted in DMSO to 100-fold the desired concentrations. In a second step, the compounds are diluted in Ringer solution such that the compounds are 4-fold more concentrated than the desired final assay concentration. The final DMSO concentration was 1%.
20 μl of each compound solution are then transferred to the assay plate and the Ca2+ kinetic is measured to determine any intrinsic compound activity. After 5 min incubation in the FLIPR device, the second stimulation with 20 μl of glutamate in Ringer solution (glutamate concentration adjusted to approximately 5% basal stimulation of the maximal possible glutamate effect) is added and the kinetic Ca2+ response of the wells was measured for the modulation effect.
The peak height of the Ca release related fluorescence signal (9-66) is used for the EC50.
The EC50 of the modulation is calculated over a nonlinear regression with GraphPad Prism (Table 1).

Row | Structure (SMILES) | EC50
1 | CC1(C)CN(C(=O)c2ccccc2)CCN1C(=O)c1ncn(-c2ccccc2)n1 [Example 112] | 770 nM
2 | Cc1oc2ccccc2c1C(=O)N1CCN(C(=O)c2ncn(-c3ccccc3)n2)CC1C (stereo not shown) [Example 240] | 350 nM
3 | COc1cccc(C(=O)N2CCN(C(=O)c3ncn(-c4cccc(Br)c4)n3)C(C)C2)n1 (stereo not shown) [Example 299] | 376 nM
4 | CC1(C)CN(C(=O)c2ccc(F)c(Cl)c2)CCN1C(=O)c1ncn(-c2ccccc2)n1 [Example 149] | 353 nM
5 | COCc1cccc(C(=O)N2CCN(C(=O)c3ncn(-c4cccc(Cl)c4)n3)C(C)(C)C2)n1 [Example 38] | 410 nM
6 | COc1cc(C(=O)N2CCN(C(=O)c3ncn(-c4cccc(C)c4)n3)CC2C)ccc1C (stereo not shown) [Example 235] | 314 nM
7 | CC1CN(C(=O)c2ncn(-c3cccc(F)c3)n2)CCN1C(=O)c1cc(Cl)c2c(c1)OCCO2 (stereo not shown) [Example 234] | 301 nM
8 | CC1(C)CN(C(=O)c2cc(Cl)c(F)c(Cl)c2)CCN1C(=O)c1ncn(-c2ccccc2)n1 [Example 156] | 232 nM
9 | COc1ccc2oc(C)c(C(=O)N3CCN(C(=O)c4ncn(-c5cccc(F)c5)n4)C(C)C3)c2c1 (stereo not shown) [Example 287] | 242 nM
10 | Cc1c(C(=O)N2CCN(C(=O)c3ncn(-c4cccc(Cl)c4)n3)C[C@@H]2C)oc2ccc(F)cc12 [Example 253] | 336 nM
11 | Cc1ccc(-n2cnc(C(=O)N3CCN(C(=O)c4cc(Cl)c5c(c4)OCCO5)CC3(C)C)n2)cc1F [Example 157, [4-(8-Chloro-2,3-dihydro-benzo[1,4]dioxine-6-carbonyl)-2,2-dimethyl-piperazin-1-yl]-[1-(3-fluoro-4-methyl-phenyl)-1H-[1,2,4]triazol-3-yl]-methanone] | 364 nM
12 | CC1(C)CN(C(=O)c2cccc(Cl)c2)CCN1C(=O)c1ncn(-c2ccccc2F)n1 [Example 194] | 491 nM
13 | CC1CN(C(=O)c2sc3ccccc3c2Cl)CCN1C(=O)c1ncn(-c2cccc(Cl)c2)n1 (stereo not shown) [Example 271] | 621 nM
14 | COc1ccc2oc(C)c(C(=O)N3CCN(C(=O)c4ncn(-c5cccc(C)c5)n4)C(C)C3)c2c1 (stereo not shown) [Example 290] | 272 nM
15 | Cc1ccc2oc(C(=O)N3CCN(C(=O)c4ncn(-c5cccc(Cl)c5)n4)C(C)C3)c(C)c2c1 (stereo not shown) [Example 281] | 1500 nM
16 | CC(C#N)c1cccc(C(=O)N2CCN(C(=O)c3ncn(-c4cccc(Cl)c4)n3)C(C)(C)C2)c1 (stereo not shown) [Example 75] | 419 nM
17 | CC1(C)CN(C(=O)c2nccc(C(F)(F)F)n2)CCN1C(=O)c1ncn(-c2ccccc2)n1 [Example 147] | 613 nM
18 | CC1(C)CN(C(=O)c2ccnc(C(F)(F)F)c2)CCN1C(=O)c1ncn(-c2cccc(Cl)c2)n1 [Example 88] | 375 nM
19 | Cc1c(C(=O)N2CCN(C(=O)c3ncn(-c4ccccc4)n3)C(C)C2)oc2ccc(F)cc12 (stereo not shown) [Example 294] | 1080 nM
20 | CC1CN(C(=O)c2ncn(-c3cccc(Cl)c3)n2)CCN1C(=O)c1cccc2c1OCO2 (stereo not shown) [Example 220] | 799 nM
21 | COc1ccc(C(=O)N2CCN(C(=O)c3ncn(-c4ccccc4)n3)C(C)(C)C2)s1 [Example 119] | 695 nM
22 | CC1CN(C(=O)c2cccc(-c3nccs3)c2)CCN1C(=O)c1ncn(-c2cccc(Cl)c2)n1 (stereo not shown) [Example 270] | 677 nM

Compounds with a lower EC50, results first:

Row | EC50 | Structure (SMILES)
23 | 205 nM | C[C@H]1CN(C(=O)c2ncn(-c3cccc(F)c3)n2)CCN1C(=O)c1cc(Br)c(Br)o1 [Example 256, (S)-[4-(4,5-Dibromo-furan-2-carbonyl)-3-methyl-piperazin-1-yl]-[1-(3-fluoro-phenyl)-1H-[1,2,4]triazol-3-yl]-methanone]
24 | 200 nM | Cc1c(C(=O)N2CCN(C(=O)c3ncn(-c4cccc(Cl)c4)n3)C(C)(C)C2)oc2ccc(F)cc12 [Example 41]
25 | 197 nM | Cc1c(C(=O)N2CCN(C(=O)c3ncn(-c4cccc(F)c4)n3)C(C)(C)C2)n(C)c2ccccc12 [Example 6]
26 | 181 nM | Cn1nc(C(=O)N2CCN(C(=O)c3ncn(-c4cccc(Cl)c4)n3)C(C)(C)C2)c2ccccc21 [Example 77]
27 | 168 nM | CCC[C@H]1CN(C(=O)c2ncn(-c3cccc(F)c3)n2)CCN1C(=O)c1cccc(OC)n1 [Example 261, (S)-{4-[1-(3-Fluoro-phenyl)-1H-[1,2,4]triazole-3-carbonyl]-2-propyl-piperazin-1-yl}-(6-methoxy-pyridin-2-yl)-methanone]
28 | 164 nM | CC1(C)CN(C(=O)c2cccc(-c3ccncc3)n2)CCN1C(=O)c1ncn(-c2cccc(Cl)c2)n1 [Example 86]
29 | 157 nM | Cc1ccc(Cl)cc1C(=O)N1CCN(C(=O)c2ncn(-c3ccccc3)n2)C(C)(C)C1 [Example 154]
30 | 157 nM | C[C@H]1CN(C(=O)c2ncn(-c3cccc(Cl)c3)n2)CCN1C(=O)c1cc(Br)c(Br)o1 [Example 254]
31 | 156 nM | CC1(C)CN(C(=O)c2cccc(Cl)c2)CCN1C(=O)c1nnn(-c2ccccc2F)n1 [Example 196]
32 | 154 nM | COc1cccc(C(=O)N2CCN(C(=O)c3ncn(-c4cccc(Cl)c4)n3)[C@@H](C)C2)n1 [Example 300, (S)-{4-[1-(3-Chloro-phenyl)-1H-[1,2,4]triazole-3-carbonyl]-3-methyl-piperazin-1-yl}-(6-methoxy-pyridin-2-yl)-methanone]
33 | 123 nM | COc1cccc(C(=O)N2CCN(C(=O)c3nnn(-c4cccc(C)c4)n3)C(C)(C)C2)n1 [Example 198]
34 | 120 nM | Cc1ccc(Cl)cc1C(=O)N1CCN(C(=O)c2ncn(-c3cccc(Cl)c3)n2)C(C)(C)C1 [Example 57]
35 | 114 nM | COc1ccc2oc(C)c(C(=O)N3CCN(C(=O)c4ncn(-c5ccccc5)n4)CC3C)c2c1 (stereo not shown) [Example 242]
36 | 88 nM | CC(C)COc1cccc(C(=O)N2CCN(C(=O)c3ncn(-c4ccccc4)n3)C(C)(C)C2)c1 [Example 129]
37 | 88 nM | COc1cc(C(=O)N2CCN(C(=O)c3ncn(-c4cccc(Cl)c4)n3)C(C)(C)C2)ccc1C [Example 46]
38 | 77 nM | Cc1c(C(=O)N2CCN(C(=O)c3ncn(-c4cccc(Cl)c4)n3)C(C)(C)C2)oc2c(F)cccc12 [Example 53]
39 | 69 nM | COc1cccc(C(=O)N2CCN(C(=O)c3nnn(-c4cccc(Cl)c4)n3)C(C)(C)C2)n1 [Example 199]
40 | 57 nM | CC1(C)CN(C(=O)c2cccc(Cl)c2)CCN1C(=O)c1ncn(-c2cccc(F)c2)n1 [Example 190]
41 | 49 nM | Cc1oc2ccc(F)cc2c1C(=O)N1CCN(C(=O)c2ncn(-c3ccccc3)n2)C(C)(C)C1 [Example 102]
42 | 26 nM | COc1cc(Cl)cc(C(=O)N2CCN(C(=O)c3nnn(-c4cccc(Cl)c4)n3)C(C)(C)C2)n1 [Example 172]
43 | 25 nM | CC(C)c1cccc(C(=O)N2CCN(C(=O)c3ncn(-c4ccccc4)n3)C(C)(C)C2)c1 [Example 96, [4-(3-Isopropyl-benzoyl)-2,2-dimethyl-piperazin-1-yl]-(1-phenyl-1H-[1,2,4]triazol-3-yl)-methanone]
44 | 23 nM | CC1(C)CN(C(=O)c2cccc(C3CCCC3)c2)CCN1C(=O)c1ncn(-c2ccccc2)n1 [Example 144]
45 | 19 nM | CC(C)c1cccc(C(=O)N2CCN(C(=O)c3ncn(-c4cccc(Cl)c4)n3)C(C)(C)C2)c1 [Example 11, [1-(3-Chloro-phenyl)-1H-[1,2,4]-triazol-3-yl]-[4-(3-isopropyl-benzoyl)-2,2-dimethyl-piperazin-1-yl]methanone]
46 | 16 nM | CC1(C)CN(C(=O)c2cccc(C3CCC3)c2)CCN1C(=O)c1ncn(-c2ccccc2)n1 [Example 151]
